Reference: US20220169628A1 (University of Florida Research Foundation, Incorporated, priority 2019, published 2022)
Read-outs that look alike come from different tables or passages of the source.

Key:
[1] = system: MOLT-4 cells; assay: Cell viability assay, MTS, 48 h, MOLT-4; type: cell-based; conditions: 48 hours, read-out: IC50 (48 hours) MOLT-4
Description: (§1) Acute lymphoblastic leukemia cells (MOLT-4 and RS4; 11) or small cell lung cancer (NCI-H146 or simply H146) were incubated with increasing concentrations of Bcl-xL degraders for 48 h. Cell viability was measured by tetrazolium-based MTS assay.

[2] = system: RS4;11 cells; assay: Cell viability assay, MTS, 48 h, RS4;11; type: cell-based; conditions: 48 hours, read-out: IC50 (48 hours) RS4;11
Description: as §1

Compound | IC50 ([1]; Homo sapiens, MOLT-4, 48 h) | IC50 ([2]; Homo sapiens, RS4-11, 48 h) | IC50 [1] | IC50 [2]
Cc1ncsc1-c1ccc([C@H](C)NC(=O)[C@@H]2C[C@@H](O)CN2C(=O)[C@@H](NC(=O)CCCCCCC(=O)N2CCN(C[C@]3(C)CCC(c4ccc(Cl)cc4)=C(CN4CCN(c5ccc(C(=O)NS(=O)(=O)c6ccc(N[C@H](CCN7CCOCC7)CSc7ccccc7)c(S(=O)(=O)C(F)(F)F)c6)cc5)CC4)C3)CC2)C(C)(C)C)cc1 [degrader #44, (2S,4R)-1-((S)-2-(8-(4-(((R)-4′-chloro-4-methyl-6-((4-(4-(((4-(((R)-4-morpholino-1-(phenylthio)butan-2-yl)amino)-3-((trifluoromethyl)sulfonyl)phenyl)sulfonyl)carbamoyl)phenyl)piperazin-1-yl)methyl)-2,3,4,5-tetrahydro-[1,1′-biphenyl]-4-yl)methyl)piperazin-1-yl)-8-oxooctanamido)-3,3-dimethylbutanoyl)-4-hydroxy-N—((S)-1-(4-(4-methylthiazol-5-yl)phenyl)ethyl)pyrrolidine-2-carboxamide] | < 50 nM | < 50 nM |  | 
Cc1ncsc1-c1ccc([C@H](C)NC(=O)[C@@H]2C[C@@H](O)CN2C(=O)[C@@H](NC(=O)CCCCCCC(=O)N2C[C@@H]3C[C@H]2CN3CC2(C)CCC(c3ccc(Cl)cc3)=C(CN3CCN(c4ccc(C(=O)NS(=O)(=O)c5ccc(N[C@H](CCN6CCOCC6)CSc6ccccc6)c(S(=O)(=O)C(F)(F)F)c5)cc4)CC3)C2)C(C)(C)C)cc1 (some centres unmarked) [degrader #45] | 50 to 150 nM | < 50 nM |  | 
Cc1ncsc1-c1ccc([C@H](C)NC(=O)[C@@H]2C[C@@H](O)CN2C(=O)[C@@H](NC(=O)CCCCCC(=O)N[C@H]2CCCN(CC3(C)CCC(c4ccc(Cl)cc4)=C(CN4CCN(c5ccc(C(=O)NS(=O)(=O)c6ccc(N[C@H](CCN7CCOCC7)CSc7ccccc7)c(S(=O)(=O)C(F)(F)F)c6)cc5)CC4)C3)C2)C(C)(C)C)cc1 (stereo partly drawn) [degrader #46, N1-((3S)-1-((4′-chloro-4-methyl-6-((4-(4-(((4-(((R)-4-morpholino-1-(phenylthio)butan-2-yl)amino)-3-((trifluoromethyl)sulfonyl)phenyl)sulfonyl)carbamoyl)phenyl)piperazin-1-yl)methyl)-2,3,4,5-tetrahydro-[1,1′-biphenyl]-4-yl)methyl)piperidin-3-yl)-N7-((S)-1-((2S,4R)-4-hydroxy-2-(((S)-1-(4-(4-methylthiazol-5-yl)phenyl)ethyl)carbamoyl)pyrrolidin-1-yl)-3,3-dimethyl-1-oxobutan-2-yl)heptanediamide] | 150 to 500 nM | 50 to 150 nM |  | 
Cc1ncsc1-c1ccc([C@H](C)NC(=O)[C@@H]2C[C@@H](O)CN2C(=O)[C@@H](NC(=O)CCCCCCC(=O)N[C@H]2CCCN(CC3(C)CCC(c4ccc(Cl)cc4)=C(CN4CCN(c5ccc(C(=O)NS(=O)(=O)c6ccc(N[C@H](CCN7CCOCC7)CSc7ccccc7)c(S(=O)(=O)C(F)(F)F)c6)cc5)CC4)C3)C2)C(C)(C)C)cc1 (stereo partly drawn) [degrader #47, N1-((3S)-1-((4′-chloro-4-methyl-6-((4-(4-(((4-(((R)-4-morpholino-1-(phenylthio)butan-2-yl)amino)-3-((trifluoromethyl)sulfonyl)phenyl)sulfonyl)carbamoyl)phenyl)piperazin-1-yl)methyl)-2,3,4,5-tetrahydro-[1,1′-biphenyl]-4-yl)methyl)piperidin-3-yl)-N8-((S)-1-((2S,4R)-4-hydroxy-2-(((S)-1-(4-(4-methylthiazol-5-yl)phenyl)ethyl)carbamoyl)pyrrolidin-1-yl)-3,3-dimethyl-1-oxobutan-2-yl)octanediamide] | 50 to 150 nM | 50 to 150 nM |  | 
Cc1ncsc1-c1ccc([C@H](C)NC(=O)[C@@H]2C[C@@H](O)CN2C(=O)[C@@H](NC(=O)CCCCCCCC(=O)N[C@H]2CCCN(CC3(C)CCC(c4ccc(Cl)cc4)=C(CN4CCN(c5ccc(C(=O)NS(=O)(=O)c6ccc(N[C@H](CCN7CCOCC7)CSc7ccccc7)c(S(=O)(=O)C(F)(F)F)c6)cc5)CC4)C3)C2)C(C)(C)C)cc1 (stereo partly drawn) [degrader #48, N1-((3S)-1-((4′-chloro-4-methyl-6-((4-(4-(((4-(((R)-4-morpholino-1-(phenylthio)butan-2-yl)amino)-3-((trifluoromethyl)sulfonyl)phenyl)sulfonyl)carbamoyl)phenyl)piperazin-1-yl)methyl)-2,3,4,5-tetrahydro-[1,1′-biphenyl]-4-yl)methyl)piperidin-3-yl)-N9-((S)-1-((2S,4R)-4-hydroxy-2-(((S)-1-(4-(4-methylthiazol-5-yl)phenyl)ethyl)carbamoyl)pyrrolidin-1-yl)-3,3-dimethyl-1-oxobutan-2-yl)nonanediamide] | 50 to 150 nM | < 50 nM |  | 
(2S,4R)-1-((S)-2-(4-(4-(4-chlorophenyl)-5-((4-(4-(((4-(((R)-4-morpholino-1-(phenylthio)butan-2-yl)amino)-3-((trifluoromethyl)sulfonyl)phenyl)sulfonyl)carbamoyl)phenyl)piperazin-1-yl)methyl)-3,6-dihydropyridin-1(2H)-yl)-4-oxobutanamido)-3,3-dimethylbutanoyl)-4-hydroxy-N—((S)-1-(4-(4-methylthiazol-5-yl)phenyl)ethyl)pyrrolidine-2-carboxamide [Example 1] |  |  | 150 to 500 nM | 150 to 500 nM
(2S,4R)-1-((S)-2-(7-(4-(4-chlorophenyl)-5-((4-(4-(((4-(((R)-4-morpholino-1-(phenylthio)butan-2-yl)amino)-3-((trifluoromethyl)sulfonyl)phenyl)sulfonyl)carbamoyl)phenyl)piperazin-1-yl)methyl)-3,6-dihydropyridin-1(2H)-yl)-7-oxoheptanamido)-3,3-dimethylbutanoyl)-4-hydroxy-N—((S)-1-(4-(4-methylthiazol-5-yl)phenyl)ethyl)pyrrolidine-2-carboxamide [Example 2] |  |  | 150 to 500 nM | 150 to 500 nM
(2S,4R)-1-((S)-2-(8-(4-(4-chlorophenyl)-5-((4-(4-(((4-(((R)-4-morpholino-1-(phenylthio)butan-2-yl)amino)-3-((trifluoromethyl)sulfonyl)phenyl)sulfonyl)carbamoyl)phenyl)piperazin-1-yl)methyl)-3,6-dihydropyridin-1(2H)-yl)-8-oxooctanamido)-3,3-dimethylbutanoyl)-4-hydroxy-N—((S)-1-(4-(4-methylthiazol-5-yl)phenyl)ethyl)pyrrolidine-2-carboxamide [Example 3] |  |  | 150 to 500 nM | 50 to 150 nM
(2S,4R)-1-((S)-2-(9-(4-(4-chlorophenyl)-5-((4-(4-(((4-(((R)-4-morpholino-1-(phenylthio)butan-2-yl)amino)-3-((trifluoromethyl)sulfonyl)phenyl)sulfonyl)carbamoyl)phenyl)piperazin-1-yl)methyl)-3,6-dihydropyridin-1(2H)-yl)-9-oxononanamido)-3,3-dimethylbutanoyl)-4-hydroxy-N—((S)-1-(4-(4-methylthiazol-5-yl)phenyl)ethyl)pyrrolidine-2-carboxamide [Example 4] |  |  | 50 to 150 nM | < 50 nM
(2S,4R)-1-((S)-2-(10-(4-(4-chlorophenyl)-5-((4-(4-(((4-(((R)-4-morpholino-1-(phenylthio)butan-2-yl)amino)-3-((trifluoromethyl)sulfonyl)phenyl)sulfonyl)carbamoyl)phenyl)piperazin-1-yl)methyl)-3,6-dihydropyridin-1(2H)-yl)-10-oxodecanamido)-3,3-dimethylbutanoyl)-4-hydroxy-N—((S)-1-(4-(4-methylthiazol-5-yl)phenyl)ethyl)pyrrolidine-2-carboxamide [Example 5] |  |  | < 50 nM | < 50 nM
(2S,4R)-1-((S)-2-(11-(4-(4-chlorophenyl)-5-((4-(4-(((4-(((R)-4-morpholino-1-(phenylthio)butan-2-yl)amino)-3-((trifluoromethyl)sulfonyl)phenyl)sulfonyl)carbamoyl)phenyl)piperazin-1-yl)methyl)-3,6-dihydropyridin-1(2H)-yl)-11-oxoundecanamido)-3,3-dimethylbutanoyl)-4-hydroxy-N—((S)-1-(4-(4-methylthiazol-5-yl)phenyl)ethyl)pyrrolidine-2-carboxamide [Example 6] |  |  | 50 to 150 nM | < 50 nM
(2S,4R)-1-((S)-2-(12-(4-(4-chlorophenyl)-5-((4-(4-(((4-(((R)-4-morpholino-1-(phenylthio)butan-2-yl)amino)-3-((trifluoromethyl)sulfonyl)phenyl)sulfonyl)carbamoyl)phenyl)piperazin-1-yl)methyl)-3,6-dihydropyridin-1(2H)-yl)-12-oxododecanamido)-3,3-dimethylbutanoyl)-4-hydroxy-N—((S)-1-(4-(4-methylthiazol-5-yl)phenyl)ethyl)pyrrolidine-2-carboxamide [Example 7] |  |  | 50 to 150 nM | 50 to 150 nM
(S)-13-((2S,4R)-4-hydroxy-2-(((S)-1-(4-(4-methylthiazol-5-yl)phenyl)ethyl)carbamoyl)pyrrolidine-1-carbonyl)-14,14-dimethyl-11-oxo-3,6,9-trioxa-12-azapentadecyl 4-(4-chlorophenyl)-5-((4-(4-(((4-(((R)-4-morpholino-1-(phenylthio)butan-2-yl)amino)-3-((trifluoromethyl)sulfonyl)phenyl)sulfonyl)carbamoyl)phenyl)piperazin-1-yl)methyl)-3,6-dihydropyridine-1(2H)-carboxylate [Example 8] |  |  | 150 to 500 nM | 150 to 500 nM
